From PubChem BioAssay (NCI)
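Test compounds were applied to cells in 96-well plates for 48 hours at 5 doses. At the GI50, growth is halved. TGI: total growth inhibition.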

Legend:
Assay in all cases: DTP human tumour cell line panel, 48 h
NCI-H522 lung = system: NCI-H522 lung
SN12C renal = system: SN12C renal
HCT-15 colon = system: HCT-15 colon
SNB-19 CNS = system: SNB-19 CNS
MDA-MB-435 = system: MDA-MB-435
UO-31 renal = system: UO-31 renal
MCF7 breast = system: MCF7 breast
SF-268 CNS = system: SF-268 CNS
SK-MEL-5 melanoma = system: SK-MEL-5 melanoma
TK-10 renal = system: TK-10 renal
K-562 leukemia = system: K-562 leukemia
BT-549 breast = system: BT-549 breast
OVCAR-8 ovarian = system: OVCAR-8 ovarian
RXF 393 renal = system: RXF 393 renal
MDA-MB-468 breast = system: MDA-MB-468 breast
SF-539 CNS = system: SF-539 CNS
HOP-62 NSCLC = system: HOP-62 NSCLC
SW-620 colon = system: SW-620 colon
SK-OV-3 ovarian = system: SK-OV-3 ovarian
COLO 205 colon = system: COLO 205 colon
A498 renal = system: A498 renal
SR leukemia = system: SR leukemia
SK-MEL-2 melanoma = system: SK-MEL-2 melanoma
HS 578T breast = system: HS 578T breast
CAKI-1 renal = system: CAKI-1 renal
EKVX NSCLC = system: EKVX NSCLC
MALME-3M melanoma = system: MALME-3M melanoma
OVCAR-3 ovarian = system: OVCAR-3 ovarian
HOP-92 NSCLC = system: HOP-92 NSCLC
A549 NSCLC = system: A549 NSCLC
OVCAR-5 ovarian = system: OVCAR-5 ovarian
HCT-116 colon = system: HCT-116 colon
786-0 renal = system: 786-0 renal
NCI/ADR-RES ovarian = system: NCI/ADR-RES ovarian
LOX IMVI melanoma = system: LOX IMVI melanoma
NCI-H460 lung = system: NCI-H460 lung
KM12 colon = system: KM12 colon
DU-145 prostate = system: DU-145 prostate
MDA-MB-231 breast = system: MDA-MB-231 breast
T-47D breast = system: T-47D breast
UACC-257 melanoma = system: UACC-257 melanoma
CCRF-CEM leukemia = system: CCRF-CEM leukemia
HCC-2998 colon = system: HCC-2998 colon
MOLT-4 leukemia = system: MOLT-4 leukemia
HT29 colon = system: HT29 colon
NCI-H23 lung = system: NCI-H23 lung
NCI-H226 lung = system: NCI-H226 lung
U251 CNS = system: U251 CNS
ACHN renal = system: ACHN renal
IGROV1 ovarian = system: IGROV1 ovarian
OVCAR-4 ovarian = system: OVCAR-4 ovarian
M14 melanoma = system: M14 melanoma
SF-295 CNS = system: SF-295 CNS
SNB-75 CNS = system: SNB-75 CNS
HL-60(TB) leukemia = system: HL-60(TB) leukemia
UACC-62 melanoma = system: UACC-62 melanoma
RPMI-8226 leukemia = system: RPMI-8226 leukemia
SK-MEL-28 melanoma = system: SK-MEL-28 melanoma

Molecule `CCN1CCN(Cc2ccc(C(=O)Nc3cccc(-c4cn(-c5ccc6oc(=O)ccc6c5)nn4)c3)cc2C(F)(F)F)CC1` has a GI50 (NCI-H522 lung) of 17.2 µM, a TGI (NCI-H522 lung) of 30.9 µM and a GI50 (SN12C renal) of 14.3 µM. It also gave a TGI (SN12C renal) of 27.4 µM, a GI50 (HCT-15 colon) of 1.78 µM and a TGI (HCT-15 colon) of 3.45 µM. It also gave a GI50 (SNB-19 CNS) of 17.3 µM, a TGI (SNB-19 CNS) of 31.1 µM and a GI50 (MDA-MB-435) of 1.76 µM. It also gave a TGI (MDA-MB-435) of 3.6 µM, a GI50 (UO-31 renal) of 10.6 µM and a TGI (UO-31 renal) of 22.4 µM. For the same molecule, the GI50 (MCF7 breast) was 1.68 µM, the TGI (MCF7 breast) was 3.2 µM and the GI50 (SF-268 CNS) was 18.1 µM. For the same molecule, the TGI (SF-268 CNS) was 45.6 µM, the GI50 (SK-MEL-5 melanoma) was 5.5 µM and the TGI (SK-MEL-5 melanoma) was 18 µM. For the same molecule, the GI50 (TK-10 renal) was 19.9 µM, the TGI (TK-10 renal) was 34.1 µM and the GI50 (K-562 leukemia) was 2.34 µM. It also gave a TGI (K-562 leukemia) of 7.26 µM, a GI50 (BT-549 breast) greater than 100 µM and a TGI (BT-549 breast) greater than 100 µM. For the same molecule, the GI50 (OVCAR-8 ovarian) was 7.71 µM, the TGI (OVCAR-8 ovarian) was 20.3 µM and the GI50 (RXF 393 renal) was 1.77 µM. It also gave a TGI (RXF 393 renal) of 3.47 µM, a GI50 (MDA-MB-468 breast) of 12.3 µM and a TGI (MDA-MB-468 breast) of 27.4 µM. For the same molecule, the GI50 (SF-539 CNS) was 12.2 µM, the TGI (SF-539 CNS) was 24.6 µM and the GI50 (HOP-62 NSCLC) was 16.4 µM. It also gave a TGI (HOP-62 NSCLC) of 31.4 µM, a GI50 (SW-620 colon) of 1.71 µM and a TGI (SW-620 colon) of 3.41 µM. The GI50 (SK-OV-3 ovarian) was 21.7 µM, the TGI (SK-OV-3 ovarian) was 79.4 µM and the GI50 (COLO 205 colon) was greater than 100 µM. It also gave a TGI (COLO 205 colon) greater than 100 µM, a GI50 (A498 renal) of 29.1 µM and a TGI (A498 renal) greater than 100 µM. For the same molecule, the GI50 (SR leukemia) was 6.47 µM, the TGI (SR leukemia) was 52.6 µM and the GI50 (SK-MEL-2 melanoma) was 58.3 µM. For the same molecule, the TGI (SK-MEL-2 melanoma) was greater than 100 µM, the GI50 (HS 578T breast) was 18.2 µM and the TGI (HS 578T breast) was 67 µM. It also gave a GI50 (CAKI-1 renal) of 16.5 µM, a TGI (CAKI-1 renal) of 39.7 µM and a GI50 (EKVX NSCLC) of 3.81 µM. It also gave a TGI (EKVX NSCLC) of 14.6 µM, a GI50 (MALME-3M melanoma) of 1.6 µM and a TGI (MALME-3M melanoma) of 3 µM. It also gave a GI50 (OVCAR-3 ovarian) of 16.5 µM, a TGI (OVCAR-3 ovarian) of 30 µM and a GI50 (HOP-92 NSCLC) of 11.1 µM. The TGI (HOP-92 NSCLC) was 39.8 µM, the GI50 (A549 NSCLC) was 1.79 µM and the TGI (A549 NSCLC) was 3.64 µM. It also gave a GI50 (OVCAR-5 ovarian) of 16.2 µM, a TGI (OVCAR-5 ovarian) of 29.7 µM and a GI50 (HCT-116 colon) of 1.82 µM. For the same molecule, the TGI (HCT-116 colon) was 3.68 µM, the GI50 (786-0 renal) was 2.05 µM and the TGI (786-0 renal) was 4.05 µM. For the same molecule, the GI50 (NCI/ADR-RES ovarian) was 1.82 µM, the TGI (NCI/ADR-RES ovarian) was 3.54 µM and the GI50 (LOX IMVI melanoma) was 1.69 µM. For the same molecule, the TGI (LOX IMVI melanoma) was 3.06 µM, the GI50 (NCI-H460 lung) was 3.61 µM and the TGI (NCI-H460 lung) was 12.6 µM. For the same molecule, the GI50 (KM12 colon) was 5.37 µM, the TGI (KM12 colon) was 17.6 µM and the GI50 (DU-145 prostate) was 15.8 µM. The TGI (DU-145 prostate) was 29.2 µM, the GI50 (MDA-MB-231 breast) was 1.78 µM and the TGI (MDA-MB-231 breast) was 3.2 µM. The GI50 (T-47D breast) was greater than 100 µM, the TGI (T-47D breast) was greater than 100 µM and the GI50 (UACC-257 melanoma) was 19.2 µM. The TGI (UACC-257 melanoma) was 43.3 µM, the GI50 (CCRF-CEM leukemia) was 2.23 µM and the TGI (CCRF-CEM leukemia) was 8.3 µM. It also gave a GI50 (HCC-2998 colon) of 2.52 µM, a TGI (HCC-2998 colon) of 5.47 µM and a GI50 (MOLT-4 leukemia) of 2.88 µM. The TGI (MOLT-4 leukemia) was 12.9 µM, the GI50 (HT29 colon) was 1.77 µM and the TGI (HT29 colon) was 3.72 µM. It also gave a GI50 (NCI-H23 lung) of 1.79 µM, a TGI (NCI-H23 lung) of 3.56 µM and a GI50 (NCI-H226 lung) of 13.6 µM. The TGI (NCI-H226 lung) was 27 µM, the GI50 (U251 CNS) was 1.91 µM and the TGI (U251 CNS) was 4.03 µM. The GI50 (ACHN renal) was 10.9 µM, the TGI (ACHN renal) was 22.9 µM and the GI50 (IGROV1 ovarian) was 10.5 µM. For the same molecule, the TGI (IGROV1 ovarian) was 22.3 µM, the GI50 (OVCAR-4 ovarian) was 13.9 µM and the TGI (OVCAR-4 ovarian) was 27.6 µM. It also gave a GI50 (M14 melanoma) of 2.46 µM, a TGI (M14 melanoma) of 6.86 µM and a GI50 (SF-295 CNS) of 14.8 µM. For the same molecule, the TGI (SF-295 CNS) was 28 µM, the GI50 (SNB-75 CNS) was 12.2 µM and the TGI (SNB-75 CNS) was 24.6 µM. For the same molecule, the GI50 (HL-60(TB) leukemia) was 30.1 µM, the TGI (HL-60(TB) leukemia) was greater than 100 µM and the GI50 (UACC-62 melanoma) was 12.3 µM. It also gave a TGI (UACC-62 melanoma) of 24.7 µM, a GI50 (RPMI-8226 leukemia) of 2.62 µM and a TGI (RPMI-8226 leukemia) of 12.2 µM. It also gave a GI50 (SK-MEL-28 melanoma) of 1.81 µM and a TGI (SK-MEL-28 melanoma) of 3.29 µM.
